These results are taken from US4391821A, “7-Substituted benzopyranes and process for the preparation thereof” (Chinoin Gyogyszer es Vegyeszeti Termekek Gyara R.T., priority 1980, dated 1983).

For series [1], the system named is blood pressure lowering and heart frequency increasing effects induced by isoproterenol. In words: Isoproterenol-induced blood pressure lowering and heart frequency increase in cats. It is filed as in vivo. The following applies: LD50/10 i.v., 2 mg/kg i.v. isoproterenol.
Series [2] has as its system blood pressure and heart frequency. In kind it is in vivo, cats.
A further series concerns rabbit ilium. In words: Spasmolytic effect on rabbit ilium.
The subject of another series is rat intestine. In words: Spasms induced in rat intestine by acetylcholine or barium chloride.
Series [3] is described as follows: Acute toxicity in mice i.v. The following applies: mouse, in vivo, iv.
A further series relates to blood pressure. In words: Blood pressure, heart frequency and breathing in rabbits. Conditions: i.v. or enterally. It is filed as in vivo. The source says:
(§1) Propanolamines of formula (Ib) [drawing 4] constitute another special subgroup of compounds of formula (I). In formula (Ib) R1 and R2 are as defined above. These compounds have also very advantageous pharmaceutical effects, which, however, differ from the effects of the butanolamines of formula (Ia).

In a further series the test system is rat Langendorff-heart. In words: Coronary flow in rat Langendorff-heart. The following applies: 10 μg/0,1 ml dose.
Description: as §1

The subject of series [4] is arrhythmia induced by 30 μg/kg i.v. aconitin. Briefly: Aconitin-induced arrhythmia in rats. The following applies: LD50/10 i.v. In kind it is in vivo. The source says: (§2) In formula (Ia) R1 and R2 are as defined above, preferably R1 is branched alkyl or cycloalkyl, and R2 is hydrogen.
For series [5], the system named is ventricular tadhycardia provoked by Strophantin. Briefly: Strophantin-provoked ventricular tachycardia in anesthetized cats. It is filed as in vivo.
Description: as §2

Series [6] deals with ventricular fibrillation threshold. Briefly: Ventricular fibrillation threshold in open-chested anesthetized cats. In kind it is in vivo.
Description: as §2

Series [7] concerns guinea pig isolated left auricle. Briefly: Effective refractory period in guinea pig isolated left auricle (electrophysiology). Conditions: 5×10^-5 M. The source says: (§3) The antiisoproterenol effect of the compound is moderated.
Series [8] shares this test system. In words: Antiisoproterenol effect in guinea pig isolated left auricle.
Description: as §3

A further series has as its system trachea preparation. In words: Antiisoproterenol effect in trachea preparation.
Description: as §3

The next series deals with β-receptor. Briefly: Antiisoproterenol effect, overall and concentration curves.
Description: as §3

Series [9] relates to increase of the T-wave in the electrocardiogram induced by ornithine-vasopressin. Briefly: Ornithine-vasopressin-induced T-wave increase in ECG of rabbits anesthetized with urethane (antianginic). In kind it is in vivo. Conditions: LD50/40. The source says:
From the pharmaceutical point of view the strong antianginic effect of our compounds of formula (Ia) is very important.

With `CC1CCc2ccc(OCC(O)CNC3CCCCC3)cc2O1` (centres unmarked) [1-(2-methyl-3,4-dihydro-2H-1-benzopyrane-7-yloxy)-3-cyclohexylamino-2-propanol], the “inhibition of blood pressure lowering and heart frequency increasing effects induced by isoproterenol” value in series [1] is listed as “inhibits strongly”.

For `Cc1cc(=O)c2ccc(OCC(O)CNC(C)(C)C)cc2o1` (centres unmarked) [1-(2-methyl-4H-1-benzopyrane-4-one-7-yloxy)-3-(1,1-dimethylethylamino)-2-propanol], the “reduction of blood pressure” value in series [2] (LD50/20 i.v., anesthetized cats) stood at 50.2%. For the same compound, the “effect on heart frequency” value in series [2] (in vivo, iv) is “without significantly affecting their heart frequency”. The spasmolytic effect entry with rabbit ilium was “spasmolytic agent with parasympatholytic and direct striped muscle effects”. For the same compound, in the series with rat intestine (acetylcholine), the “effect against spasms induced by acetylcholine” value was “effective”. For the same compound, in the series with rat intestine (barium chloride), the “effect against spasms induced by barium chloride” value was “effective”.

With `CC(C)NCC(O)COc1ccc2c(c1)OCCC2` (centres unmarked) [1-(3,4-dihydro-2H-1-benzopyrane-7-yloxy)-3-(1-methylethylamino)-2-propanol], the blood pressure lowering in series [2] (LD50/320 i.v., anesthetized cats) is 33,5%. Further, the LD50 in series [3] stood at 66 mg/kg.

On to `CC(C)NCC(O)COc1ccc2c(c1)OCC(c1ccccc1)C2` (centres unmarked) [1-(3-phenyl-3,4-dihydro-2H-1-benzopyrane-7-yloxy)-3-(1-methylethylamino)-2-propanol], for which, in the series on blood pressure, the blood pressure lowering entry was “significant and long-lasting blood pressure lowering”; the “effect on heart frequency, volume of breathing and frequency of breathing” value was “without affecting the heart frequency, the volume of breathing and the frequency of breathing”. Further, the coronary flow result with rat Langendorff-heart was “increases the coronary flow”.

For the compound `OC(CCNC1CCCCC1)COc1ccc2c(c1)OC(c1ccccc1)CC2` (centres unmarked) [4-cyclohexylamino-1-(2-phenyl-3,4-dihydro-2H-1-benzopyrane-7-yloxy)-2-butanol], in series [4], the “effect on arrhythmia induced by aconitin” value is reported as “revokes arrhythmia”. The “time for which ventricular tachycardia provoked by Strophantin is suspended” value in series [5] turned out to be 19 min. For the same compound, the ventricular fibrillation threshold entry in series [6] was “remarkably increases”. In addition, in [6] (versus Propranolol), the “ventricular fibrillation threshold, effect compared with Propranolol” value is given as “stronger effect that that of Propranolol”. For the same compound, the “effect on effective refractory period compared with Practolol” value in series [7] (versus Practolol) is “stronger by nearly an order of magnitude than that of Practolol”. Moreover, the “effect on effective refractory period compared with Propranolol” value in [7] (versus Propranolol) is recorded as “almost as strong as the effect of Propranolol”. In addition, in [8], the “concentration with antiisoproterenol effect in left auricle” value stood at 50 µM. Further, in the series with trachea preparation, the “concentration with antiisoproterenol effect in trachea preparation” value is recorded as 10^-4 M. The antiisoproterenol effect result in the series on β-receptor (overall) is “moderated”. In the series with β-receptor (runs of the concentration curves), the “character of the antiisoproterenol effect” value is reported as “not of a competitive character”.

In the case of `OC(CCNC1CCCCC1)COc1ccc2c(c1)OCC(c1ccccc1)C2` (centres unmarked) [4-cyclohexylamino-1-(3-phenyl-3,4-dihydro-2H-1-benzopyrane-7-yloxy)-2-butanol], in [9] (rabbits anesthetized with urethane, 0.5 E/kg ornithine-vasopressin), the “elimination of the increase of the T-wave in the electrocardiogram” value is “eliminates practically completely”. The “effect on T-wave increase compared with Propranolol” value in series [9] (versus Propranolol) is “significantly surpasses the effect of Propranolol”.

A word on the LD50: it is the dose expected to kill half of the subjects tested. Low values mean greater toxicity, high ones lower toxicity.
